# From patent US4281121A, “1,3,4-Thiadiazole-2-carboxylic acid derivatives, process for making the same and fungicidal and nematocidal compositions containing same” (Schering Aktiengesellschaft, priority 1978, dated 1981)
# Like-named read-outs stand apart in the source and are kept apart here.
# Legend:
# Tilletia caries = assay: Treatment of oat seeds infested with Tilletia caries (spore germination); assay type: in vivo
# Pythium ultimum = assay: Threshold concentration test for use of the compounds against Pythium ultimum (infested soil, garden peas); assay type: in vivo; parameters: key to root evaluation (1-4): 4: white roots without fungous necrosis; 3: white roots, minor fungous necrosis; 2: brown roots, already more pronounced fungous necrosis; 1: heavy fungous necrosis, roots rotted; conditions: for root evaluation (1-4): 3 weeks; for number of sound peas: 20 grains per dish, 3 weeks at 20-24° C.
# Protocol: Threshold concentration test for use of the compounds against Pythium ultimum
# A 20% concentration of certain pulverulent active agents as listed below were mixed in uniform manner into a soil which had been heavily infested by Pythium ultimum. The thus treated soil was then placed into clay dishes of a capacity of 0.5 l earth. Without any intermediate time lapse 20 grain of garden peas (Pisum sativum L. convar. medullare Alef.) of the type "Wunder von Kelvedon" were then seeded into each of the clay dishes. After a cultivation period of three weeks at 20° to 24° C. in a hothouse the number of sound peas was determined and a root evaluation was carried out. The active agents amounts and results appear from the following table.
# (§1) The root evaluation was carried out on a scale from 1 to 4 as follows: […]
# Fusarium avenaceum = assay: Threshold concentration test in case of Fusarium avenaceum (infested soil, garden peas); assay type: in vivo; conditions: for number of sound peas: 20 grains per dish, 18 days at 20-24° C.; for root evaluation (1-4): 18 days
# Protocol: Threshold concentration test in case of Fusarium avenaceum
# A 20% pulverulent active agent of the type further identified in the table below was mixed in uniform manner with a soil which had been heavily infested with Fusarium avenaceum. The thus treated soil was then placed into clay dishes of a capacity of 0.5 l of earth. Each dish was seeded without any intervening time with 20 grains of garden peas (Pisum sativum L. convar. medullare Alef.) of the type "Wunder von Kelvedon". After a cultivation time of 18 days at 20° to 24° C. in a hot house the number of sound peas was determined and a root evaluation was carried out. The active agents employed, the amounts and results appear from the following table.
# as §1
# Helminthosporium gram = conditions: about 5 weeks
# Protocol: Treatment of barley seeds infested with Helminthosporium gram
# After emergence, the plants were subjected to illumination for 12 hours per day. After about 5 weeks the infested plants were counted and the total number of plants for each test were also counted. The active agents tested were used as pulverulent compositions.
Compound,% activity (Tilletia caries; 50 g active agent per 100 kg) [%],root evaluation (1-4) (Pythium ultimum; 20 mg/l soil),number of sound peas (Pythium ultimum; 20 mg/l soil),root evaluation (1-4) (Pythium ultimum; 40 mg/l soil),number of sound peas (Pythium ultimum; 40 mg/l soil),root evaluation (1-4) (Pythium ultimum; 80 mg/l soil),number of sound peas (Pythium ultimum; 80 mg/l soil),number of sound peas (Fusarium avenaceum; 25 mg/l soil),root evaluation (1-4) (Fusarium avenaceum; 25 mg/l soil),number of sound peas (Fusarium avenaceum; 50 mg/l soil),root evaluation (1-4) (Fusarium avenaceum; 50 mg/l soil),number of sound peas (Fusarium avenaceum; 100 mg/l soil),root evaluation (1-4) (Fusarium avenaceum; 100 mg/l soil),% activity (Helminthosporium gram; 50 g active agent per 100 kg) [%],% activity (Tilletia caries; 20 g active agent per 100 kg) [%],% activity (Helminthosporium gram; 20 g active agent per 100 kg) [%],% activity (Tilletia caries; 10 g active agent per 100 kg) [%]
"CCCC[S+]([O-])c1nnc(C#N)s1 (centres unmarked) [5-butylsulfinyl-1,3,4-thiadiazole-2-carbonitrile]",100,4,18,4,18,4,20,19,4,19,4,19,4,–,–,–,–
"CCCC[S+]([O-])c1nnc(C(=O)N(C)C)s1 (centres unmarked) [5-butylsulfinyl-1,3,4-thiadiazole-2-carboxylic acid-dimethylamide]",–,–,–,–,–,–,–,–,–,–,–,–,–,100,–,–,–
"CCCCS(=O)(=O)c1nnc(C(=O)N2CCC2)s1 [5-butylsulfonyl-1,3,4-thiadiazole-2-carboxylic acid-N,N-trimethylenamide]",100,–,–,–,–,–,–,5,1,13,2,18,3,–,–,–,–
"CCS(=O)(=O)c1nnc(C(=O)N2CCC2)s1 [5-ethylsulfonyl-1,3,4-thiadiazole-2-carboxylic acid-N,N-trimethyleneamide]",–,4,20,4,19,4,20,–,–,–,–,–,–,–,–,–,–
"CC(C)[S+]([O-])c1nnc(C#N)s1 (centres unmarked) [5-isopropylsulfinyl-1,3,4-thiadiazole-2-carbonitrile]",100,3,17,4,17,4,19,18,4,19,4,18,4,93,87,–,–
"CC(C)[S+]([O-])c1nnc(C(N)=O)s1 (centres unmarked) [5-isopropylsulfinyl-1,3,4-thiadiazole-2-carboxamide]",100,–,–,–,–,–,–,–,–,–,–,–,–,100,–,–,–
"CC(C)[S+]([O-])c1nnc(C(=O)NCC2CCCCC2)s1 (centres unmarked) [5-isopropylsulfinyl-1,3,4-thiadiazole-2-carboxylic acid-cyclohexylmethylamide]",100,–,–,–,–,–,–,–,–,–,–,–,–,–,99,–,–
"C[S+]([O-])c1nnc(C#N)s1 (centres unmarked) [5-methylsulfinyl-1,3,4-thiadiazole-2-carbonitrile]",100,4,19,4,20,4,20,20,4,18,4,19,4,94,100,–,–
"C[S+]([O-])c1nnc(C(N)=O)s1 (centres unmarked) [5-methylsulfinyl-1,3,4-thiadiazole-2-carboxamide]",100,–,–,–,–,–,–,–,–,–,–,–,–,100,98,–,–
"C[S+]([O-])c1nnc(C(=O)NCc2ccccc2Cl)s1 (centres unmarked) [5-methylsulfinyl-1,3,4-thiadiazole-2-carboxylic acid-(2-chlorobenzyleamide)]",–,–,–,–,–,–,–,7,2,11,3,18,4,–,–,–,–
"COCCNC(=O)c1nnc(S(C)(=O)=O)s1 [5-methylsulfonyl-1,3,4-thiadiazole-2-carboxylic acid-(2-methoxyethyl)-amide]",100,–,–,–,–,–,–,–,–,–,–,–,–,100,93,92,–
"C=CCNC(=O)c1nnc([S+]([O-])CCC)s1 (centres unmarked) [5-propylsulfinyl-1,3,4-thiadiazole-2-carboxylic acid-allylamide]",100,2,15,4,19,4,19,–,–,–,–,–,–,96,100,–,–
"CCC[S+]([O-])c1nnc(C(=O)NC(C)C)s1 (centres unmarked) [5-propylsulfinyl-1,3,4-thiadiazole-2-carboxylic acid-isopropylamide]",100,–,–,–,–,–,–,9,3,13,4,16,4,100,100,–,–
"CCCS(=O)(=O)c1nnc(C(=O)NCCCCl)s1 [5-propylsulfonyl-1,3,4-thiadiazole-2-carboxylic acid-(3-chloropropyl)-amide]",–,1,10,3,19,4,19,–,–,–,–,–,–,–,–,–,–
"CCCCNC(=O)c1nnc(S(=O)(=O)CCC)s1 [5-propylsulfonyl-1,3,4-thiadiazole-2-carboxylic acid-butylamide]",100,–,–,–,–,–,–,9,1,16,3,17,4,–,99.7,–,99.2
"CCCS(=O)(=O)c1nnc(C(=O)NCC)s1 [5-propylsulfonyl-1,3,4-thiadiazole-2-carboxylic acid-ethylamide]",100,3,14,4,14,4,14,–,–,–,–,–,–,–,99.8,–,99.3
"S=C([S-])NCCNC(=S)[S-].[Mn+2] [Manganese ethylene-1,2-bis-dithiocarbamate, reference compound]",–,1,1,1,4,1,11,0,1,0,1,12,1,–,–,–,–
